For 1 molecule, Drug uptake results are on record in ChEMBL document CHEMBL5137094, “Construction of Covalent Bisubstrate Inhibitor of Protein Kinase Reacting with Cysteine Residue at Substrate-Binding Site” (J Med Chem, 2022).

Data set [1] can be described thus: Drug uptake in live human HeLa cells assessed as drug internalization at 5 uM incubated for 15 mins to 2 hrs in presence of forskolin by live cell imaging analysis. The class given is ADME, cell-based. The following applies: time 15-120 min.
Data set [2] is described as follows: Drug uptake in live human HeLa cells assessed as drug internalization at 5 uM incubated for 15 mins to 2 hrs in absence of forskolin by live cell imaging analysis. It counts as ADME, cell-based. Particulars: time 15-120 min; call rule not given here.
Data set [3] in a line: Drug uptake in endosome of human HeLa cells assessed as punctate perinuclear pattern formation at 1 to 5 uM incubated for 15 mins to 2 hrs by live cell imaging analysis. The class given is ADME, subcellular. Particulars: dose lower 1 µM, time lower 15 min, dose upper 5 µM, time upper 120 min.
A short description of data set [4]: Drug uptake in cytoplasm of human HeLa cells at 1 to 5 uM incubated for 15 mins to 2 hrs by live cell imaging analysis. The class given is ADME, subcellular. The following applies: dose lower 1 µM, time lower 15 min, dose upper 5 µM, time upper 120 min.
A short description of data set [5]: Drug uptake in cell membrane of human HeLa cells assessed as observation of cell plasma membrane protrusions at 1 to 5 uM incubated for 15 mins to 2 hrs by live cell imaging analysis. The class given is ADME, cell membranes. Particulars: dose lower 1 µM, time lower 15 min, dose upper 5 µM, time upper 120 min.
A short description of data set [6]: Drug uptake in endosome of human HeLa cells assessed as punctate perinuclear pattern formation at 1 to 5 uM incubated for 15 mins to 2 hrs in presence of forskolin by live cell imaging analysis. It counts as ADME, subcellular. The following applies: dose lower 1 µM, time lower 15 min, dose upper 5 µM, time upper 120 min.
Data set [7] can be described thus: Drug uptake in cytoplasm of human HeLa cells at 1 to 5 uM incubated for 15 mins to 2 hrs in presence of forskolin by live cell imaging analysis. The class given is ADME, subcellular. The following applies: dose lower 1 µM, time lower 15 min, dose upper 5 µM, time upper 120 min.
Data set [8] can be described thus: Drug uptake in cell membrane of human HeLa cells assessed as observation of cell plasma membrane protrusions at 1 to 5 uM incubated for 15 mins to 2 hrs in presence of forskolin by live cell imaging analysis. The class given is ADME, cell membranes. Particulars: dose lower 1 µM, time lower 15 min, dose upper 5 µM, time upper 120 min.
The nature of data set [9]: Drug uptake in live human HeLa cells assessed as increase in fluorescence intensity at 1 to 5 uM by microplate reader analysis. It counts as ADME, cell-based. The following applies: TDE = time-dependent effect, dose lower 1 µM, time lower 15 min, dose upper 5 µM, time upper 120 min.

In the case of `CC[C@H](C)[C@H](NC(=O)CCC(=O)N[C@@H](CCCCNC(=O)[C@@H](CCCNC(=N)N)NC(=O)CCCCCCCC(=O)N1CCN(c2ncnc3[nH]ccc23)CC1)C(=O)N[C@H](CCCNC(=N)N)C(=O)N[C@H](CCCNC(=N)N)C(=O)N[C@H](CCCCNC(=O)CCCCC[N+]1=C(/C=C/C=C/C=C2\N(C)c3ccccc3C2(C)C)C(C)(C)c2ccccc21)C(N)=O)C(=O)NCC(=O)CF`, the Drug uptake result in data set [1], in data set [2], in [3], in data set [4], in data set [5] and in data set [6] was “Active” each time. Moreover, the Drug uptake result is on record as “Active” in data set [7], “Active” in data set [8] and “Tde” in data set [9].
